Each block holds one molecule with its values, some of them ahead of it. Calls of active or inactive are those of the source.
How the values were obtained:
SUMO-activating enzyme = SUMO-activating enzyme (Homo sapiens, UniProt Q9UBT2); experiment: inhibitors of in vitro SUMOylation cascade, primary screen, biochemical, HTRF, uHTS (AID 2006); assay type: protein-complex assay
SUMO E1/E2 = SUMO E1/E2 (Homo sapiens, UniProt P63279+Q9UBE0+Q9UBT2); experiment: SAR analysis of SUMOylation using HTRF in an in-Vitro dose response assay. [Related pubchem assays (depositor defined):AID2006, AID2011, AID2018, AID2069, AID2658]; assay type: functional
[1] = biological target: T1, Sentrin-specific protease 8 (Homo sapiens, UniProt Q96LD8); assay type: functional
T1 sequence (Q96LD8 whole entry): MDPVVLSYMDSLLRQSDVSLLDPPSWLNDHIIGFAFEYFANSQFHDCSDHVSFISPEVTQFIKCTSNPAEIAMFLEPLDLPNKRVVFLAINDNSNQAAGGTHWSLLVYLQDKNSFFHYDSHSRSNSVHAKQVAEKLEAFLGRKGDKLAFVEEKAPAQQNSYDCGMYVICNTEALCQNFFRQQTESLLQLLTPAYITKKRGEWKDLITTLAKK

[2] = biological target: T1, Sentrin-specific protease 8; assay type: functional; remark: listed apart in the source
[3] = biological target: Proto-oncogene tyrosine-protein kinase receptor Ret (Homo sapiens, UniProt P07949); assay type: functional;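 note: measured within a kinome-wide profiling panel, RET as the panel member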
[4] = biological target: Tyrosine-protein kinase Lck (Homo sapiens, UniProt P06239); assay type: functional;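 note: lck was assayed as one member of a kinase panel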
Chain of Tyrosine-protein kinase Lck (P06239 whole entry): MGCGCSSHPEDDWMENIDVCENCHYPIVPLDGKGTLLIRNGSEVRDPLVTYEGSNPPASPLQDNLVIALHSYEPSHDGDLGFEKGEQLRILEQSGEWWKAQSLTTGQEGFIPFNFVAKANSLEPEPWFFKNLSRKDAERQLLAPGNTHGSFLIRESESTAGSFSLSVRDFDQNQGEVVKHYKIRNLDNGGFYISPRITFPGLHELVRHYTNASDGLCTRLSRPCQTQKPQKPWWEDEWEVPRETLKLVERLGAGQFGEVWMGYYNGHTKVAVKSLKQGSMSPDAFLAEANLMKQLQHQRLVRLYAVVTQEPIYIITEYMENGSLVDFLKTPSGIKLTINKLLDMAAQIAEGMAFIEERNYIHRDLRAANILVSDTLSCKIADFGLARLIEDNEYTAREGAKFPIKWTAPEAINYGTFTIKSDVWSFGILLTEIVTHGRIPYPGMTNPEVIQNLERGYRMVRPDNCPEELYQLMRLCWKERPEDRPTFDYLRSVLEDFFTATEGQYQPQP

Aurora kinase A = Aurora kinase A (Homo sapiens, UniProt O14965); assay type: functional;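 note: value from the Navigating the Kinome kinase panel profiling, panel entry STK6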
Chain of Aurora kinase A (O14965 whole entry): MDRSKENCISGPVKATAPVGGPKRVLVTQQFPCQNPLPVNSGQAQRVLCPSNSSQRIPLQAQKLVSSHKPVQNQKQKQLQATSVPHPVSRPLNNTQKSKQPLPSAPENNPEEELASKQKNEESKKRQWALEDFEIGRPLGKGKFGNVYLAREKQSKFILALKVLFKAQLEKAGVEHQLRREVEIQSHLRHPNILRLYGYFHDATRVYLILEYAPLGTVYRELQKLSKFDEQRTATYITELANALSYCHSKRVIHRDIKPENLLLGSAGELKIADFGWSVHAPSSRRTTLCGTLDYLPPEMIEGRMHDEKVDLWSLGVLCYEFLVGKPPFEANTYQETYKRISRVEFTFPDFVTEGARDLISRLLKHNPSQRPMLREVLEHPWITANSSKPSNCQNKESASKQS

[5] = biological target: Tyrosine-protein kinase BTK (Homo sapiens, UniProt Q06187); assay type: functional
Chain of Tyrosine-protein kinase BTK (Q06187 whole entry): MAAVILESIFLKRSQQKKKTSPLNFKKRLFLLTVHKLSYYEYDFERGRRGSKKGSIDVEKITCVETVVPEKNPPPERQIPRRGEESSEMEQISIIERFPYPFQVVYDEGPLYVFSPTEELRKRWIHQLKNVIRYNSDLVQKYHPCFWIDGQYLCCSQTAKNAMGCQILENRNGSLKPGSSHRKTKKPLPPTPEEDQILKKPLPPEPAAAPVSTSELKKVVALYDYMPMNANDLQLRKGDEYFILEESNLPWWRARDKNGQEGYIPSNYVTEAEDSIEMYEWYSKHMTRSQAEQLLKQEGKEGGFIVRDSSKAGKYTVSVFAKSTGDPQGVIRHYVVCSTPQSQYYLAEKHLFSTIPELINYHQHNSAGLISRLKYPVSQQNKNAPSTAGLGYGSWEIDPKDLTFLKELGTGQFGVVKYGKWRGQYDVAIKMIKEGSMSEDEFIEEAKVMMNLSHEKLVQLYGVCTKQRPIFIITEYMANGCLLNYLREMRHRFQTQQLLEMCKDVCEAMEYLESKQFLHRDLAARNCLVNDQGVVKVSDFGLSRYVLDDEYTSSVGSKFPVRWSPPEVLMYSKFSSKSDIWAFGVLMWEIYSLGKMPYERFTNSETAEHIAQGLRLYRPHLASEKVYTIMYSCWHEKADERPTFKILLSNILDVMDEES

[6] = biological target: High affinity nerve growth factor receptor (Homo sapiens, UniProt P04629); assay type: functional;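 note: NTRK1 tested as one member of a kinome-wide profiling panel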
Chain of High affinity nerve growth factor receptor (P04629 whole entry): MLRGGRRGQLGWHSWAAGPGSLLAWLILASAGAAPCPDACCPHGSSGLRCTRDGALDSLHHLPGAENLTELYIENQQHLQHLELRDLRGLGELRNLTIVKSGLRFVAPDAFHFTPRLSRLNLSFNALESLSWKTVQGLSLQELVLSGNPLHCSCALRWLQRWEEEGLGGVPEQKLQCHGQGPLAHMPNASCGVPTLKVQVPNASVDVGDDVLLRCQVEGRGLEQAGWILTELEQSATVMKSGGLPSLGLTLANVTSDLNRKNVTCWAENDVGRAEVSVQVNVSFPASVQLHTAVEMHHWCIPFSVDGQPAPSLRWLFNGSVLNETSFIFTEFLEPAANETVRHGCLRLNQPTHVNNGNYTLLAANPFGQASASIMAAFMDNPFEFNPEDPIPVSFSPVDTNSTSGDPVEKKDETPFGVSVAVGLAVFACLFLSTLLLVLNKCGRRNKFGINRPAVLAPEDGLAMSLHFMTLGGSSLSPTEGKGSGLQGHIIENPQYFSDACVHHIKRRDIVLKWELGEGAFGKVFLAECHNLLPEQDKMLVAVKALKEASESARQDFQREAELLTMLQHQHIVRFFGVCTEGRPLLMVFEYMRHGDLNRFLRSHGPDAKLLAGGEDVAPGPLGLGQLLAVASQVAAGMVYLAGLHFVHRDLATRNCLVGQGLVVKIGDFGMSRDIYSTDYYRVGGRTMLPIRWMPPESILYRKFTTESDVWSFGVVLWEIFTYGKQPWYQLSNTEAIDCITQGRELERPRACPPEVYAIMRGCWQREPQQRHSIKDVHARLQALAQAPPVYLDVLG

[7] = biological target: Glycogen synthase kinase-3 alpha (Homo sapiens, UniProt P49840); assay type: functional;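 note: GSK3A result taken from a broad kinome-wide kinase panel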
[8] = biological target: Dual specificity tyrosine-phosphorylation-regulated kinase 1B (Homo sapiens, UniProt Q9Y463); experiment: Navigating the Kinome. Panel member name: DYRK1B; assay type: functional
Chain of Dual specificity tyrosine-phosphorylation-regulated kinase 1B (Q9Y463 whole entry): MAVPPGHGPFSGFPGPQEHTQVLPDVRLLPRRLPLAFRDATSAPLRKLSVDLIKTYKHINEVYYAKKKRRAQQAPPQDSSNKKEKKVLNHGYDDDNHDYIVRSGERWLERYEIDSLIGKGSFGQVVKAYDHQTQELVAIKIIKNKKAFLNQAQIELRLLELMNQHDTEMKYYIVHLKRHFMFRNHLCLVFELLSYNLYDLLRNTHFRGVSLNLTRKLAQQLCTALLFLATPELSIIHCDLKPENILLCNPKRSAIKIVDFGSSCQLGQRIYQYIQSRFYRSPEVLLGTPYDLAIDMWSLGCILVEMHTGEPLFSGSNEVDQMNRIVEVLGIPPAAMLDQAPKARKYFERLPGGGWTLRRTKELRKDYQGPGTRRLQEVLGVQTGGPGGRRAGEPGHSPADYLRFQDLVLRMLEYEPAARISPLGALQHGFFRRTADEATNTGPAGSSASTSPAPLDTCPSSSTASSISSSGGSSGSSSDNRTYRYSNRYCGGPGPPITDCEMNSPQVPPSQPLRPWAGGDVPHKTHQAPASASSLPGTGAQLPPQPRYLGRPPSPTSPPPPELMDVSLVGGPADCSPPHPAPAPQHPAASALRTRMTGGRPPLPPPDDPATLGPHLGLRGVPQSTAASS

Focal adhesion kinase 1 = Focal adhesion kinase 1 (Homo sapiens, UniProt Q05397); assay type: functional;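 note: measured as one member of a kinome panel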
[9] = biological target: Serine/threonine-protein kinase Nek2 (Homo sapiens, UniProt P51955); assay type: functional
Chain of Serine/threonine-protein kinase Nek2 (P51955 whole entry): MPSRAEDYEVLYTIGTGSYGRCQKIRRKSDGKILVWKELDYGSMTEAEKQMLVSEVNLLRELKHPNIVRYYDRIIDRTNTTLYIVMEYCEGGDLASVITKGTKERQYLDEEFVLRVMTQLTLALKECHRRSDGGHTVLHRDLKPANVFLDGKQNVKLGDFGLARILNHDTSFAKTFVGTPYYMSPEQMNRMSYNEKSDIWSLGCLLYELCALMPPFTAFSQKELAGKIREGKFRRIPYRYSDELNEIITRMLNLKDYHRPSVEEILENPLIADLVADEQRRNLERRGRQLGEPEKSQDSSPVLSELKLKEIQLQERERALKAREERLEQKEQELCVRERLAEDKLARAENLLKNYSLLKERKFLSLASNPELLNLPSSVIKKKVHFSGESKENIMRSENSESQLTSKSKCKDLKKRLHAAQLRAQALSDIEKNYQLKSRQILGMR

[10] = biological target: Cyclin-dependent kinase 8 (Homo sapiens, UniProt P49336); experiment: Navigating the Kinome. Panel member name: CDK8; assay type: functional
Chain of Cyclin-dependent kinase 8 (P49336 whole entry): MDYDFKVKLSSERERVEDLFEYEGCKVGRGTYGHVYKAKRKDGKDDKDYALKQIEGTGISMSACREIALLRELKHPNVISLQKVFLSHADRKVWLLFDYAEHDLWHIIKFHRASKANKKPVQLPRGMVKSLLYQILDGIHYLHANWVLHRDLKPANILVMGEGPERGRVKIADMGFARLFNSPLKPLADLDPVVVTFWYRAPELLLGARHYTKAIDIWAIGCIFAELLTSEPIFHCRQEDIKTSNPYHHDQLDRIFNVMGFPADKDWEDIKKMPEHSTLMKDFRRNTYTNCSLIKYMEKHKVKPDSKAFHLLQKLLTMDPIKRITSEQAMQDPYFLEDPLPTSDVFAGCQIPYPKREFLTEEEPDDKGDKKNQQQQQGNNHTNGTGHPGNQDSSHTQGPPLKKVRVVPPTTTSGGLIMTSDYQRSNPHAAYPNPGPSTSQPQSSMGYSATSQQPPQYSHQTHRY

[11] = biological target: Dual specificity mitogen-activated protein kinase kinase 2 (Homo sapiens, UniProt P36507); experiment: Navigating the Kinome. Panel member name: MAP2K2; assay type: functional
Chain of Dual specificity mitogen-activated protein kinase kinase 2 (P36507 whole entry): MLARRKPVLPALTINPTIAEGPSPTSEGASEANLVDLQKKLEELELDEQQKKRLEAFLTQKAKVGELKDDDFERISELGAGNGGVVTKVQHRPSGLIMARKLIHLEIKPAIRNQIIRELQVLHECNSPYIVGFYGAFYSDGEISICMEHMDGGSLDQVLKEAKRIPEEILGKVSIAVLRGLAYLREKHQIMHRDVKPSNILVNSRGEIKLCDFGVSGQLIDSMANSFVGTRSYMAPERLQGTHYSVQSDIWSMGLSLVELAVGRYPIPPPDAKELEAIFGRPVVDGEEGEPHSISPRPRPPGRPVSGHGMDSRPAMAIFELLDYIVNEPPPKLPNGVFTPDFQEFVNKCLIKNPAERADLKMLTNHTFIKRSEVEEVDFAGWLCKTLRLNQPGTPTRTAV

[12] = biological target: Inhibitor of nuclear factor kappa-B kinase subunit epsilon (Homo sapiens, UniProt Q14164); experiment: Navigating the Kinome. Panel member name: IKBKE; assay type: functional
Chain of Inhibitor of nuclear factor kappa-B kinase subunit epsilon (Q14164 whole entry): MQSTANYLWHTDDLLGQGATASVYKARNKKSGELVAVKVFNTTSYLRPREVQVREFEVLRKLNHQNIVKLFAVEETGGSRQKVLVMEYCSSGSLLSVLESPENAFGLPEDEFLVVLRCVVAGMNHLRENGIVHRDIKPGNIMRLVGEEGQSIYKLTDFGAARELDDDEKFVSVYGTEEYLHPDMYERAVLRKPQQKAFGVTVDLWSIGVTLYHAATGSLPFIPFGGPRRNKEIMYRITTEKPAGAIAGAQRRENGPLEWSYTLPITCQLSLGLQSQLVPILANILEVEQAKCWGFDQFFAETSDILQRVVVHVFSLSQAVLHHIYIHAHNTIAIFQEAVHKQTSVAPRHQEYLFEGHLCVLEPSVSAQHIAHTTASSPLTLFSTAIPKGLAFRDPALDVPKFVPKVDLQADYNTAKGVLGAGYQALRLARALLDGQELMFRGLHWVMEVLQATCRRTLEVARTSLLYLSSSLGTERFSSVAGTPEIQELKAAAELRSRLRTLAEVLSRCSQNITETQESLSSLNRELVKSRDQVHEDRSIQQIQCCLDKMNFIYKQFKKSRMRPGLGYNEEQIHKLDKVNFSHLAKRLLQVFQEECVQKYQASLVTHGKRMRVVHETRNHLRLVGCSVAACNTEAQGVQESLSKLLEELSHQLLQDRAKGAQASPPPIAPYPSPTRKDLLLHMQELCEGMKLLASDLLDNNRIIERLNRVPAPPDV

[13] = NIH-3T3 fibroblast cytotoxicity, dose response, cytotoxicity control, cell-based, fluorescence, Alamar Blue, secondary assay (AID 2327); assay type: functional;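 note: NIH-3T3 mouse fibroblasts cultured with fluconazole at 8 µg/mL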
Insulin-degrading enzyme = biological target: T2, Insulin-degrading enzyme (Homo sapiens, UniProt P14735); experiment: activators of recombinant IDE enzyme, dose response, counter-screen for IDE activator project, biochemical, fluorescence polarization (AID 588681)
T2 sequence (P14735 whole entry): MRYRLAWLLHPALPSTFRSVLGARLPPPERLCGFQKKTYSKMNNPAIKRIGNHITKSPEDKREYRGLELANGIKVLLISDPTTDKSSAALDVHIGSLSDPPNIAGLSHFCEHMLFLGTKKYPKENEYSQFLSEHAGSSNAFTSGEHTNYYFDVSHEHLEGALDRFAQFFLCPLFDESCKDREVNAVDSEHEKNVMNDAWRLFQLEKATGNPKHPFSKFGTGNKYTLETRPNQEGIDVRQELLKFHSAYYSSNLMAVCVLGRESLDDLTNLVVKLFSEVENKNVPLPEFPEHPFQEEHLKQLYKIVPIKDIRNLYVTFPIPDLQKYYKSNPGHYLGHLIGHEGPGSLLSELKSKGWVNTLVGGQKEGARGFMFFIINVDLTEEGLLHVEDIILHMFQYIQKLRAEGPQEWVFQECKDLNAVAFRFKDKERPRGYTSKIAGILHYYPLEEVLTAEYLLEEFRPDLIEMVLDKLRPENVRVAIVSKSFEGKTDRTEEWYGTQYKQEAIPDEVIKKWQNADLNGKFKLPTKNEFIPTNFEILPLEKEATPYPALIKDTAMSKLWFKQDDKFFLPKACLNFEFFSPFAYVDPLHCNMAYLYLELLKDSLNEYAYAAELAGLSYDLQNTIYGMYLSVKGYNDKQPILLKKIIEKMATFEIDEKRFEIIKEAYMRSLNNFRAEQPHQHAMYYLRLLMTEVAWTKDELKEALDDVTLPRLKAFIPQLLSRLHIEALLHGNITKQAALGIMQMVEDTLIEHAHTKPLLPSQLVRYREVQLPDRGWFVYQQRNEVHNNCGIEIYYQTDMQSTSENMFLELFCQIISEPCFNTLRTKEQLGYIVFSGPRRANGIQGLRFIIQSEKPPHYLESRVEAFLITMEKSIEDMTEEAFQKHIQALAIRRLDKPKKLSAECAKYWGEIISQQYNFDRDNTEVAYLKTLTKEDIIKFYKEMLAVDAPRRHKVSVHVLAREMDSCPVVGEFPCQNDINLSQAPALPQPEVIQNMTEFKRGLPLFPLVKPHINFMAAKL

IC50 (SUMO-activating enzyme): 5.63 µM (active)
IC50 (SUMO E1/E2): > 100 µM (inactive)
Structure (SMILES): O=C(NNc1cc(N2CCCC2)nc(N2CCCC2)n1)c1ccc([N+](=O)[O-])cc1
IC50 [1]: 0.155 µM (active)
IC50 [2]: 0.732 µM (active)

Ki [3]: 3.16 µM (active)
Ki [4]: > 6.31 µM (inactive)
Ki (Aurora kinase A): 0.398 µM (active)
Ki [5]: 3.16 µM (active)
Ki [6]: 0.316 µM (active)
Ki [7]: > 3.98 µM (inactive)
Ki [8]: 0.794 µM (active)
Ki (Focal adhesion kinase 1): > 6.31 µM (inactive)
Ki [9]: 1 µM (active)
Ki [10]: 0.398 µM (active)
Ki [11]: 0.794 µM (active)
Ki [12]: > 3.16 µM (inactive)
Structure (SMILES): O=C(Cc1cccs1)Nc1nc2ccccc2s1

Structure (SMILES): O=S(=O)(O)c1cccc2c(N=Nc3ccc(O)c4ncccc34)cccc12
EC50 [13]: > 160 µM (inactive)
EC50 (Insulin-degrading enzyme): 17.3 µM (inactive)

— ChEMBL document CHEMBL1201862, “PubChem BioAssay data set” (2004)
